Patent US20110021458A1, “PHARMACEUTICAL COMPOSITIONS CONTAINING AN INCLUSION COMPLEX FORMED BY DISULFIRAM AND A CYCLODEXTRINE, WHICH CAN BE USED IN THE TREATMENT OF ALCOHOL AND COCAINE DEPENDENCE” (priority 2007, published 2011)

Assays:
[1] = test system: rat skin in the areas of subcutaneous administration; experiment: Histopathological study of the subcutaneous administration area; assay type: in vivo; settings: for histological findings in rat skin: SC 15 mg/kg of DSF
Protocol: FIGS. 3 to 10: histological cuts of rat skin in the areas of subcutaneous administration (SC), 15 mg/kg of DSF to the form of DSF physiological serum (PS) (A); Complex DSF-CD in SF (B), 25:75 Binary Mixture in SF (C) and control with SF (D). The histological were obtained at different times post-administration of each test. FIG. 3 is up to 8 hours post-administration; FIG. 4, to 24 hours post-administration; FIG. 5, at 48 hours post-administration; FIG. 6 to 72 hours post-administration; FIG. 7, 96 hours post-administration; FIG. 8, to 120 hours post-administration; FIG. 9, to 144 hours post administration and FIG. 10 corresponds to 168 hours post-administration.
The histopathological evaluation was performed for subcutaneous (SC) and intramuscular (IM) injections of DSF free, in the form of CD-DSF Complex and in the form of binary mixture in ratios of 25:75 and 40:60. water, water with 15% glycerin, miglyol and ethyl oleate were used as excipients.
15 mg/kg of free DSF, DSF Complex-CD, Mixed Binary 25:75 and physiological saline (SF) were administered subcutaneously (SC).
Comparative histological study between physiological saline and DSF in its various forms of administration are seen in FIG. 3 to No. 10.

[2] = Pharmacokinetics in rats after SC administration (plasma total DDC); settings: rat, in vivo, 15 mg/kg
Protocol: FIG. 19: Effect of subcutaneous administration in rats, 15 mg/kg of DSF to the form of binary mixtures in water 25:75 (A); in miglyol (B) and (C) DSF free water on the concentrations Plasma total DDC in time.
In addition to the histopathological studies in rats pharmacokinetic studies were conducted that measured the plasma concentrations of metabolites of DSF (DDC and MeDDC) after administration SC (FIG. 19) and/or IM (FIG. 20), 15 mg/kg weight of DSF to the form of binary mixtures.
It was quantified the plasma concentration of total DDC that corresponds to the sum of the metabolites and MeDDC DDC, and it was used as a parameter for the analysis of the results shown below.

CCN(CC)C(=S)SSC(=S)N(CC)CC [free DSF, 1-(diethylthiocarbamoyldisulfanyl)-N,N-diethyl-methanethioamide]
histological findings in rat skin ([1]; 8 hours post-administration): severe hyperemia was observed in the deep vascular plexus with bleeding in hypodermis
histological findings in rat skin ([1]; 24 hours post-administration): severe hyperemia was observed in both plexus, abundant presence of inflammatory cells and hemorrhage in hypodermis
histological findings in rat skin ([1]; 48 hours post-administration): severe desestructuration of the collagen fibers, hyperemia of deep vascular plexus and moderate bleeding in hypodermis
histological findings in rat skin ([1]; 72 hours post-administration): moderate hyperemia was observed in both plexus, with moderate presence of inflammatory cells and hemorrhage in hypodermis
histological findings in rat skin ([1]; 96 hours post-administration): moderate hyperemia of deep vascular plexus, with hemorrhage in hypodermis and severe presence of inflammatory cells
histological findings in rat skin ([1]; 120 hours post-administration): moderate hyperemia of deep vascular plexus, with slight presence of inflammatory cells and desestructuration of collagen fibers
histological findings in rat skin ([1]; 144 hours post-administration): moderate hyperemia of deep vascular plexus and low presence of inflammatory cells
histological findings in rat skin ([1]; 168 hours post-administration): moderate hyperemia of deep vascular plexus
Histopathological lesions, conclusion ([1]; SC administration): severe Histopathological lesions
desestructuration of the collagen fibers (summary) ([1]; SC, rat skin, 8, 24 and 48 hours from inoculation): mild, moderate to severe
Hyperemia of deep vascular plexus (summary) ([1]; SC, rat skin, 8-168 hours): severe in biopsies of 8 and 24 hours and mild to moderate in subsequent checks
presence of inflammatory cells, superficial vascular plexus hyperemia and hemorrhage in subcutis (summary) ([1]; SC, rat skin, over the controls of the study): moderate to severe
plasma levels of active metabolites at 168 hours post-administration [2]: not detected
